This is an account of results in publication PMC5502072 (Investigational New Drugs, 2017).

Experiment [1] concerns lung squamous cell carcinoma; urothelial carcinoma with FGFR3 alterations. To be noted: cited from earlier work.
Another experiment concerns advanced solid tumours. Kind of experiment: Preliminary antitumour efficacy (RECIST v1.1). It is filed as in vivo, human. Here is the method: Tumour assessments were performed according to Response Evaluation Criteria in Solid Tumors version 1.1 (RECIST v1.1) at baseline, on day 21 of the first treatment cycle, then every 6 weeks after the start of treatment for 12 weeks, and thereafter every 12 weeks (±1 week) until discontinuation of study treatment or withdrawal of consent.

The next experiment has as its system several tumour types. To be noted: cited from earlier work.
A further experiment deals with advanced solid tumors. To be noted: all responders had FGFR2 or FGFR3 translocations; cited from earlier work.
[2] abbreviates: previously treated advanced/metastatic UC with FGFR3 alterations.
[3] abbreviates: one patient with FGFR1-amplified squamous NSCLC, 80 mg bid.

“Also recorded” adds a separate entry of the source. Like-named read-outs stand apart in the source and are kept apart here.

Regarding `CCN1CCN(c2ccc(Nc3cc(N(C)C(=O)Nc4c(Cl)c(OC)cc(OC)c4Cl)ncn3)cc2)CC1` [BGJ398], the “Patients with PR” value in experiment [1] (lung squamous cell carcinoma, selected by FGFR amplification status) is 2/17. In experiment [1] (setting [2]), the Complete response entry is listed as “one unconfirmed complete response” and the “Patients with PR” value is given as 8/25.

For AZD4547, the “Patients with stable disease (≥4 weeks' duration)” value was 70% in the experiment with advanced solid tumours (Part A); 3 n with advanced solid tumours (Part A, 40 mg bid); 3 n with advanced solid tumours (Part A, 80 mg bid); 5 n in the experiment with advanced solid tumours (Part A, 120 mg bid); 10 n with advanced solid tumours (Part A, 160 mg qd). Moreover, in the experiment on advanced solid tumours (Part A), the “Patients with stable disease ≥4 weeks” value was 21/30. Besides, the “Range of percentage change in the sum of the diameters of target lesions” value in the experiment on advanced solid tumours (Part A) is “–6.8% to 48.9”; with advanced solid tumours (Part B), “–16.3% to 23.4”. The results for the “Median percentage change in the sum of the diameters of target lesions” value in the experiment on advanced solid tumours (Part A (25/30 patients)) and with advanced solid tumours (Part B (all patients)) were 5.9% and 3.0%, respectively. Besides, the “Patients continuing to experience stable disease at 10 weeks” value with advanced solid tumours (Part B, 80 mg bid) was found to be 25.0%. For the same molecule, the “Patients with stable disease ≥10 weeks” value in the experiment with advanced solid tumours (Part B, 80 mg bid) is 1/4. In addition, in the experiment on advanced solid tumours (Parts A and B), the “Complete responses and partial responses (RECIST v1.1)” value is on record as “No complete or partial responses were observed; also recorded: not observed”. In the experiment with several tumour types (4/21 additional patients), the “Patients with stable disease” value was 19%. Further, in the experiment on several tumour types (setting [3]), the Best response result is reported as “partial response”. Moreover, the “Duration of PR” value with several tumour types (setting [3]) is not below 12 weeks.

As to `COc1cc(OC)cc(N(CCNC(C)C)c2ccc3ncc(-c4cnn(C)c4)nc3c2)c1` [JNJ-42756493], in the experiment on advanced solid tumors, the “Patients with PR” value is on record as 4/23.
